Columns and labels:
[1] = tested on: Human umbilical vein-derived vascular endothelial cells (HUVEC); test: Vascular endothelial cell growth inhibitory test (VEGF-stimulated HUVEC, XTT); assay type: cell-based; details: 120 h, 5 days of culture
Experimental: To be specific, HUVEC was suspended in a vascular endothelial cell medium containing the aforementioned 5% bovine fetal serum and plated on a 96 well flat bottom plate by 50 μL (3000 cells) each well. After culture overnight, various concentrations of the test substance and 120 ng/mL of vascular endothelial growth factor (VEGF) were dissolved in a vascular endothelial cell medium containing 5% bovine fetal serum and added to each well by 50 μL. After 5 days of culture, a XTT reagent (Wako Pure Chemical Industries, Ltd.) was added to each well by 10 μL, and the mixture was reacted in an incubator at 37° C., 5% carbon dioxide for 2-3 hr. The absorbance at 450 nm was measured by a microtiter plate reader and the cell growth inhibitory activity was determined.

[2] = target: T1, PDGFRβ intracellular domain protein (Homo sapiens, UniProt P09619); test: Determination of platelet-derived growth factor receptor β (PDGFRβ) kinase inhibitory activity (AlphaScreen); assay type: biochemical
T1 construct: 125 ng/ml of PDGFRβ intracellular domain protein (UPSTATE); purchased UPSTATE
Experimental: (§1) A test compound dissolved in dimethyl sulfoxide (DMSO) was diluted with a buffer (50 mM Tris-HCl (pH 7.5), 5 mM MgCl2, 5 mM MnCl2, 2 mM dithiothreitol, 0.01% Tween-20). To this compound solution (5 μL) was added a buffer (10 μL) containing 125 ng/ml of PDGFRβ intracellular domain protein (UPSTATE) and 250 ng/mL of biotin labeled polypeptide biotinyl-poly-Glu:Tyr (4:1) (CIS bio International). At 5 min after mixing kinase enzyme and the compound and biotin labeled polypeptide, to the obtained mixture was added a buffer (10 μL) containing ATP (25 μM), the mixture was allowed to react at 25° C. for 30 min and the reaction was quenched with 25 μL of a stop solution (100 mM EDTA disodium salt, 62.5 mM HEPES buffer (pH 7.4), 250 mM NaCl, 0.1% bovine serum albumin, 10 μg/mL AlphaScreen assay streptavidin donor beads (Streptavidin Donor Beads: PerkinElmer), 10 μg/mL AlphaScreen assay anti-phosphotyrosine recognition antibody PT-66 binding acceptor beads (Anti-phosphotyrosine (P-Tyr-66) Acceptor beads: PerkinElmer)). The reaction solution was allowed to stand at 25° C. for 16 hrs, and the wells were counted using a plate reader Fusion™ (PerkinElmer). The kinase inhibitory rate (%) of the test compound was calculated by the following formula: Inhibitory rate(%)=(1−(count of test compound=blank)÷(control−blank))×100
(§2) The count of the solution reacted without addition of the compound was used as a “control”, and the count of the solution without the compound and ATP was used as a “blank”.

[3] = target: T2, PDGFRα intracellular domain protein (Homo sapiens, UniProt P16234); test: Determination of platelet-derived growth factor receptor α (PDGFRα) kinase inhibitory activity (AlphaScreen); assay type: biochemical
T2 construct: 125 ng/ml of PDGFRα intracellular domain protein (UPSTATE); purchased UPSTATE
Experimental: as §1, with “PDGFRα” for “PDGFRβ”, “beads:” for “Beads:”, “compound−blank)÷(control−blank))×100” for “compound=blank)÷(control−blank))×100”
as §2

[4] = target: T3, VEGFR2 intracellular domain protein (Homo sapiens, UniProt P35968); test: Determination of vascular endothelial growth factor receptor 2 (VEGFR2) kinase inhibitory activity (AlphaScreen); assay type: biochemical; details: read-out: VEGFR2 kinase inhibitory rate
T3 construct: made in house; host or cells: SF-21 insect cells, recombinant baculovirus BAC-VEGFR2
Experimental: Human vascular endothelial growth factor receptor 2 (hereinafter to be referred to as VEGFR2) gene was cloned by PCR using cDNA Libraries Human Placenta (Clontech) as a template. The primer used for PCR was prepared from base sequence (Genbank Accession AF035121) information of VEGFR2 gene by adding a base sequence encoding flag peptide and a recognition sequence of the restriction enzyme to a base sequence (2671-4374 of Genbank Accession AF035121) encoding the VEGFR2 intracellular domain region, so that the protein contains an N-terminal Flag tag. The primer base sequence is shown below.
SF-21 cells were sown at 1×10^6 cells/mL to Sf-900II SFM medium (1 L, Invitrogen) containing 10% fetal bovine serum (trace), 50 mg/L Gentamicin (Invitrogen) and 0.1% Pluronic F-68 (Invitrogen), and shaking culture was performed using a 2 L volume Erlenmeyer flask at 27° C., 100 rpm. After culturing for 24 hrs, recombinant baculovirus BAC-VEGFR2 (13.4 mL) was added to the mixture, and the mixture was further cultured for 3 days. The culture medium was centrifuged at 2,000 rpm for 5 min to give virus-infected cells. The infected cells were washed with a phosphate buffered saline (Invitrogen), centrifuged under the same conditions, and the cells were preserved at −80° C. The cryopreserved cells were thawed in ice, suspended in buffer A (50 mM Tris buffer (30 mL, pH 7.4) containing 20% glycerol, 0.15 M NaCl) supplemented with Complete Protease Inhibitor (Boehringer), and ruptured 3 times with a Polytron homogenizer (Kinematica) at 20,000 rpm for 30 sec. The ruptured medium was clarified by centrifugation at 40,000 rpm for 30 min and filtered with a 0.45 μm filter. The filtrate was passed through a column packed with Anti-FLAG M2 Affinity Gel (4 mL, Sigma) at a flow rate of about 0.5 mL/min. The column was washed with buffer A, and eluted with buffer A containing 100 μg/mL of FLAG peptide. The eluate was concentrated with Vivaspin 20 (Vivascience) having a molecular weight cut off of 30K. The buffer of this concentrate was exchanged using NAP™ 25 column (Amersham Bioscience) equilibrated with buffer A. The fractions containing intracellular domain protein of VEGFR2 were collected, glycerol was added to the final concentration of 50% and cryopreserved at −80° C.
A test compound dissolved in dimethyl sulfoxide (DMSO) was diluted with a buffer (50 mM Tris-HCl (pH 7.5), 5 mM MgCl2, 5 mM MnCl2, 2 mM dithiothreitol, 0.01% Tween-20). To this compound solution (5 μL) was added a buffer (10 μL) containing 50 ng/mL of VEGFR2 intracellular domain protein and 250 ng/mL of biotin labeled polypeptide biotinyl-poly-Glu:Tyr (4:1) (CIS bio International). To the obtained mixture was added a buffer (10 μL) containing ATP (25 μM), the mixture was allowed to react at 25° C. for 5 min and the reaction was quenched with 25 μL of a stop solution (100 mM EDTA disodium salt, 62.5 mM HEPES buffer (pH 7.4), 250 mM NaCl, 0.1% bovine serum albumin, 10 μg/mL AlphaScreen assay streptavidin donor beads (Streptavidin Donor beads: PerkinElmer), 10 μg/mL AlphaScreen assay anti-phosphotyrosine recognition antibody PY-100 binding acceptor beads (Anti-phosphotyrosine (P-Tyr-100) Acceptor beads: PerkinElmer)). The reaction solution was allowed to stand at 25° C. for 16 hrs, and the wells were counted using a plate reader Fusion™ (PerkinElmer). The kinase inhibitory rate (%) of the test compound was calculated by the following formula: Inhibitory rate(%)=(1−(count of test compound−blank)÷(control−blank))×100

T3 sequence (P35968 786-1356 limits assumed): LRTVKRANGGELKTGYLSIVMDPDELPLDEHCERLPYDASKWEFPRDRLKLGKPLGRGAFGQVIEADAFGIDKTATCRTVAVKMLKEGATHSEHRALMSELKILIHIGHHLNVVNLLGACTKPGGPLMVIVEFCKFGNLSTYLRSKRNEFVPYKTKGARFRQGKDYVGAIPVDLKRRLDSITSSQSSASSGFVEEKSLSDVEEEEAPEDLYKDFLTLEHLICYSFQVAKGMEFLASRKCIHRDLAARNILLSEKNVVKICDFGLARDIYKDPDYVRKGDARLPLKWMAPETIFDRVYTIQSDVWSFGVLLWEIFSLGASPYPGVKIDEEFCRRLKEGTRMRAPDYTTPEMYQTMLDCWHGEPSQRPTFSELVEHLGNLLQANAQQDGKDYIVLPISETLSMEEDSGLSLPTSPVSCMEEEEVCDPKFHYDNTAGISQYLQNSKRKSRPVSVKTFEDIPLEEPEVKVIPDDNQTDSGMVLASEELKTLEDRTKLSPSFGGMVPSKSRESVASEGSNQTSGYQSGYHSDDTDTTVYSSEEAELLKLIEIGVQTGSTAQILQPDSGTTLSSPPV
T1 sequence (P09619 554-1106 limits assumed): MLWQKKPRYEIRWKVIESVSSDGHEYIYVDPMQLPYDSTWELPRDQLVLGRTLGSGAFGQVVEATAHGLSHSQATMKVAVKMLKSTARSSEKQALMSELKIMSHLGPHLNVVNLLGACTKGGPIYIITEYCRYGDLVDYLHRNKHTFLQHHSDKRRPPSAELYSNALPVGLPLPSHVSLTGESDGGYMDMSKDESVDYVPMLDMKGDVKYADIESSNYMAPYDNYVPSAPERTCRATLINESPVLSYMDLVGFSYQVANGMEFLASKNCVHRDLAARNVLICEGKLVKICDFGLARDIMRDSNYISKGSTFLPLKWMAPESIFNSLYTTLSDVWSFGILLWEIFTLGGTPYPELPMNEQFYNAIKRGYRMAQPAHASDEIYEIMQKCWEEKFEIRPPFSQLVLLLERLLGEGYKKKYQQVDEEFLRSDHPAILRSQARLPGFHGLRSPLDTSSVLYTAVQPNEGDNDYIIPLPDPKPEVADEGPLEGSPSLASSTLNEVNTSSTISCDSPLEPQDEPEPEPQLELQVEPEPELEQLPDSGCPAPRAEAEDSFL
T2 sequence (P16234 550-1089 limits assumed): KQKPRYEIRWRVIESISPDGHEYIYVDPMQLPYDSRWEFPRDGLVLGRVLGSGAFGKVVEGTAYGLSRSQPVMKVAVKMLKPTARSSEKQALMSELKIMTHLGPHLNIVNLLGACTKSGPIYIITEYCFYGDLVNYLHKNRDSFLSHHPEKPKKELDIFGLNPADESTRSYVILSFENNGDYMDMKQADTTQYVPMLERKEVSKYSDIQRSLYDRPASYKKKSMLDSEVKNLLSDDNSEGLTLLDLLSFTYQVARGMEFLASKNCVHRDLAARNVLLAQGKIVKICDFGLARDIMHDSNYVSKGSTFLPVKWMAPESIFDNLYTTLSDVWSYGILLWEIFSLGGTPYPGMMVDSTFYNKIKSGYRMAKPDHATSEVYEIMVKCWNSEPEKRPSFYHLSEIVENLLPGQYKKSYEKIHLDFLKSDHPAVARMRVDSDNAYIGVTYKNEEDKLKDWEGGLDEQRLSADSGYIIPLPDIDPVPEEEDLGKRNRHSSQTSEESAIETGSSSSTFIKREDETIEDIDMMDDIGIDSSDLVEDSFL

IC50 [2] [nM]	IC50 [3] [nM]	inhibition at 1 µM [4] [%]	SMILES	IC50 [1] [nM]
≤ 500	≤ 500	≥ 90	COc1cc(C(=O)Nc2cc(Oc3ccc4nc(NC(=O)C5CC5)cn4n3)ccc2C)n(C)n1 [Example 302, N-[5-({2-[(cyclopropylcarbonyl)amino]imidazo[1,2-b]pyridazin-6-yl}oxy)-2-methylphenyl]-3-methoxy-1-methyl-1H-pyrazole-5-carboxamide]	≤ 500
≤ 500	≤ 500	≥ 90	Cc1nc(C)c(C(=O)Nc2cc(Oc3ccc4nc(NC(=O)C5CC5)cn4n3)ccc2F)s1 [Example 267, N-[5-({2-[(cyclopropylcarbonyl)amino]imidazo[1,2-b]pyridazin-6-yl}oxy)-2-fluorophenyl]-2,4-dimethyl-1,3-thiazole-5-carboxamide]	≤ 500
≤ 500	≤ 500	≥ 90	Cc1nc(C)c(C(=O)Nc2cc(Oc3ccc4nc(NC(=O)C5CC5)cn4n3)ccc2F)o1 [Example 289, N-[5-({2-[(cyclopropylcarbonyl)amino]imidazo[1,2-b]pyridazin-6-yl}oxy)-2-fluorophenyl]-2,4-dimethyl-1,3-oxazole-5-carboxamide]	≤ 500

From patent US8034812B2, “Imidazopyridazine derivative having kinase inhibitory activity and pharmaceutical agent thereof” (Takeda Pharmaceutical Company Limited, priority 2006, dated 2011)
